pIC50: −log10 of the molar value. Values joined by “and” are separate entries in the source; they are usually repeats but may differ in a detail not shown here. Identical values can stand only once. Like-named read-outs stand apart in the source and are kept apart here.
What was measured:
WI‐26 VA4 cells [1] = assay: CellTiter‐Glo assay (cytotoxicity)
[2] = CellTiter‐Glo assay (cytotoxicity); details: human, WI-26 VA4 cells
[3] = tested on: TNT Quick Coupled Transcription/Translation System (luciferase synthesis); type: biochemical
WI‐26 VA4 cells [4] = assay: Puromycin incorporation assay; type: cell-based, human; details: for activity at 0.01 µM: WI26VA4, 10 nM; for activity at 0.03 µM: WI26VA4, 30 nM; for activity at 3 µM: WI26VA4, 3000 nM; for activity at 10 µM: WI26VA4, 10000 nM
Procedure: After being rinsed with cold PBS twice, the cells were collected and resuspended in 200 μl of the carbonate bicarbonate buffer (Sigma Aldrich, C3041‐50CAP) with protease inhibitor. The cell lysates were obtained by sonication and centrifugation at 20,000 g for 15 min at 4°C. After protein quantification using a Pierce™ BCA Protein Assay Kit (Thermo Fisher Scientific, 23225), 400 ng of the proteins was coated to ELISA plates for 18 h at 4°C. […] The plates were rinsed with the washing buffer for three times after each antibody incubation step. […] The amount of puromycin incorporated in proteins was determined by measuring the absorbance at 450 nm (reference wavelength at 620 nm). Experimental values marked in red with strikethrough text in the Figure Source Data file were excluded from the analysis. These values were determined by considering the values of biological and technical replicates under the same condition, as well as the values at the former and later chemical concentrations.

[5] = log(inhibitor) vs. response, variable slope (four parameters), concentration in nM
[6] = Homo sapiens, read-out: Puromycin, % of control, average
[7] = Homo sapiens, read-out: Puromycin, % of control, single replicate

O=C(C[C@H]1NCCC[C@@H]1O)Cn1cnc2ccc(-c3cccc(F)c3)cc21 [DWN11251]
activity at 0.03 µM (WI‐26 VA4 cells [1]; Homo sapiens, WI26VA4, read-out: CellTiter-Glo % of control, average, 30 nM, average): 119% | activity at 0.1 µM (WI‐26 VA4 cells [1]; Homo sapiens, WI26VA4, read-out: CellTiter-Glo % of control, average, 100 nM, average): 119% | activity at 0.3 µM (WI‐26 VA4 cells [1]; Homo sapiens, WI26VA4, read-out: CellTiter-Glo % of control, average, 300 nM, average): 101% | activity at 1 µM (WI‐26 VA4 cells [1]; Homo sapiens, WI26VA4, read-out: CellTiter-Glo % of control, average, 1000 nM, average): 76.7% | activity at 3 µM (WI‐26 VA4 cells [1]; Homo sapiens, WI26VA4, read-out: CellTiter-Glo % of control, average, 3000 nM, average): 41.3% | activity at 10 µM (WI‐26 VA4 cells [1]; Homo sapiens, WI26VA4, read-out: CellTiter-Glo % of control, average, 10000 nM, average): 29% | activity at 30 µM (WI‐26 VA4 cells [1]; Homo sapiens, WI26VA4, read-out: CellTiter-Glo % of control, average, 30000 nM, average): 14.4% | activity at 100 µM (WI‐26 VA4 cells [1]; Homo sapiens, WI26VA4, read-out: CellTiter-Glo % of control, average, 100000 nM, average): 1.22% | CellTiter-Glo LogIC50 (best-fit value) (WI‐26 VA4 cells [1]; [5]): 3.259 | CC50 at 72 h [2]: 1.82 µM | TNT-luciferase % of control ([3]; 60 nM, Experiment #1, replicates, 0.06 µM): 107.20 % of control and 104.88 % of control and 105.66 % of control | TNT-luciferase % of control ([3]; 60 nM, Experiment #2, replicates, 0.06 µM): 114.45 % of control and 123.12 % of control and 122.25 % of control | TNT-luciferase % of control, average ([3]; 60 nM): 112.93 % of control | TNT-luciferase % of control ([3]; 200 nM, Experiment #1, replicates, 0.2 µM): 108.74 % of control and 107.20 % of control and 111.83 % of control | TNT-luciferase % of control ([3]; 200 nM, Experiment #2, replicates, 0.2 µM): 104.91 % of control and 109.25 % of control and 124.86 % of control | TNT-luciferase % of control, average ([3]; 200 nM): 111.13 % of control | TNT-luciferase % of control ([3]; 600 nM, Experiment #1, replicates, 0.6 µM): 114.14 % of control and 111.05 % of control and 117.22 % of control | TNT-luciferase % of control ([3]; 600 nM, Experiment #2, replicates, 0.6 µM): 98.84 % of control (2×) and 100.58 % of control | TNT-luciferase % of control, average ([3]; 600 nM): 106.78 % of control | TNT-luciferase % of control ([3]; 2000 nM, Experiment #1, replicates, 2 µM): 91.77 % of control (2×) and 97.94 % of control | TNT-luciferase % of control ([3]; 2000 nM, Experiment #2, replicates, 2 µM): 83.24 % of control and 92.77 % of control and 96.24 % of control | TNT-luciferase % of control, average ([3]; 2000 nM): 92.29 % of control | TNT-luciferase % of control ([3]; 6000 nM, Experiment #1, replicates, 6 µM): 60.77 % of control and 59.00 % of control and 60.23 % of control | TNT-luciferase % of control ([3]; 6000 nM, Experiment #2, replicates, 6 µM): 57.75 % of control and 61.56 % of control and 58.87 % of control | TNT-luciferase % of control, average ([3]; 6000 nM): 59.70 % of control | TNT-luciferase % of control ([3]; 20000 nM, Experiment #1, replicates, 20 µM): 9.64 % of control and 9.49 % of control and 10.87 % of control | TNT-luciferase % of control ([3]; 20000 nM, Experiment #2, replicates, 20 µM): 9.97 % of control and 10.14 % of control and 11.01 % of control | TNT-luciferase % of control, average ([3]; 20000 nM): 10.19 % of control | TNT-luciferase % of control ([3]; 60000 nM, Experiment #1, replicates, 60 µM): 0.32 % of control and 0.35 % of control and 0.31 % of control | TNT-luciferase % of control ([3]; 60000 nM, Experiment #2, replicates, 60 µM): 0.26 % of control and 0.27 % of control and 0.30 % of control | TNT-luciferase % of control, average ([3]; 60000 nM): 0.30 % of control | TNT-luciferase % of control ([3]; 200000 nM, Experiment #1, replicates, 200 µM): 0.0123 % of control and 0.00453 % of control and 0.000979 % of control | TNT-luciferase % of control ([3]; 200000 nM, Experiment #2, replicates, 200 µM): 0.0176 % of control and 0.0228 % of control and 0.0243 % of control | TNT-luciferase % of control, average ([3]; 200000 nM): 0.0137 % of control | TNT-luciferase LogIC50 (best-fit value) [3, 5]: 3.802 | IC50 ([3]; log(inhibitor) vs. response, variable slope (four parameters), unit from head concentration (nM), read-out: TNT-luciferase IC50 (best-fit value)): 6340 nM | Puromycin, % of control, single replicate (WI‐26 VA4 cells [4]; 10 nM, 0.01 µM): 101.25 % of control and 94.41 % of control and 100.93 % of control and 102.37 % of control and 93.16 % of control and 112.99 % of control and 111.09 % of control and 112.68 % of control | Puromycin, % of control, single replicate (WI‐26 VA4 cells [4]; 30 nM, 0.03 µM): 103.89 % of control and 102.07 % of control and 109.54 % of control and 108.35 % of control and 99.59 % of control and 116.49 % of control and 113.07 % of control and 114.50 % of control | Puromycin, % of control, single replicate (WI‐26 VA4 cells [4]; 100 nM, 0.1 µM): 103.01 % of control and 100.87 % of control and 101.28 % of control and 109.49 % of control and 107.49 % of control and 101.40 % of control and 114.53 % of control and 111.00 % of control and 121.31 % of control | Puromycin, % of control, single replicate (WI‐26 VA4 cells [4]; 300 nM, 0.3 µM): 88.40 % of control and 85.23 % of control and 87.58 % of control and 94.28 % of control and 93.99 % of control and 87.62 % of control and 94.72 % of control and 94.55 % of control and 109.57 % of control | Puromycin, % of control, single replicate (WI‐26 VA4 cells [4]; 1000 nM, 1 µM): 106.50 % of control and 101.49 % of control and 107.47 % of control and 104.76 % of control and 102.45 % of control and 95.18 % of control and 122.63 % of control and 109.16 % of control and 107.56 % of control | Puromycin, % of control, single replicate (WI‐26 VA4 cells [4]; 3000 nM, 3 µM): 61.69 % of control and 62.47 % of control and 62.84 % of control and 57.24 % of control | Puromycin, % of control, single replicate (WI‐26 VA4 cells [4]; 10000 nM, 10 µM): 19.53 % of control and 20.29 % of control and 21.78 % of control and 23.63 % of control and 20.64 % of control and 21.23 % of control and 21.73 % of control and 22.58 % of control | Puromycin, % of control, single replicate (WI‐26 VA4 cells [4]; 30000 nM, 30 µM): 0.45 % of control and 0.66 % of control and 0.0147 % of control and 1.69 % of control and 1.62 % of control and 0.33 % of control and 0.81 % of control and 1.20 % of control and -0.12 % of control | activity at 0.01 µM (WI‐26 VA4 cells [4]; [6]): 103% | activity at 0.01 µM (WI‐26 VA4 cells [4]; [7]): 99.1% | activity at 0.03 µM (WI‐26 VA4 cells [4]; [6]): 108% | activity at 0.03 µM (WI‐26 VA4 cells [4]; [7]): 108% | activity at 0.1 µM (WI‐26 VA4 cells [4]; Homo sapiens, WI26VA4, 100 nM, read-out: Puromycin, % of control, average): 108% | activity at 0.3 µM (WI‐26 VA4 cells [4]; Homo sapiens, WI26VA4, 300 nM, read-out: Puromycin, % of control, average): 92.9% | activity at 1 µM (WI‐26 VA4 cells [4]; Homo sapiens, WI26VA4, 1000 nM, read-out: Puromycin, % of control, average): 106% | activity at 3 µM (WI‐26 VA4 cells [4]; [6]): 60.8% | activity at 3 µM (WI‐26 VA4 cells [4]; [7]): 59.6% | activity at 10 µM (WI‐26 VA4 cells [4]; [6]): 21.3% | activity at 10 µM (WI‐26 VA4 cells [4]; [7]): 20.3% | activity at 30 µM (WI‐26 VA4 cells [4]; Homo sapiens, WI26VA4, 30000 nM, read-out: Puromycin, % of control, average): 0.74% | pIC50 (WI‐26 VA4 cells [4]; Homo sapiens, WI26VA4, log(inhibitor) vs. response, variable slope (four parameters), read-out: Puromycin, IC50 (best-fit value)): 5.37 | Puromycin, HillSlope (best-fit value) (WI‐26 VA4 cells [4]; log(inhibitor) vs. response, variable slope (four parameters)): -1.784 | Puromycin, LogIC50 (best-fit value) (WI‐26 VA4 cells [4]; [5]): 3.627

Reference: PMC10331583, “Control of fibrosis with enhanced safety via asymmetric inhibition of prolyl‐tRNA synthetase 1” (EMBO Molecular Medicine, 2023)
